Laboratory results taken from patent publication US8895756B2, “Bendamustine pharmaceutical compositions” (priority 2005, dated 2014).

Test: HPLC stability of bendamustine (15 mg/mL, mannitol 25.5 mg/mL) in alcohol/water solutions at 5° C.
Type: physicochemical
Conditions: for HP1 (%) / Purity (% Area) / Dimer (%): 5° C.
Experimental: A sample of each formulation was analyzed by HPLC after 0, 3, 6 and 24 hours when stored at 5° C.

[1] = 20% Butanol (2 layers, vortexed), 0 hours
[2] = 20% Butanol (2 layers, vortexed), 3 hours
[3] = 20% Butanol (2 layers, vortexed), 6 hours
[4] = 20% Butanol (2 layers, vortexed), 24 hours
[5] = 30% Butanol (2 layers, vortexed), 0 hours
[6] = 30% Butanol (2 layers, vortexed), 3 hours
[7] = 30% Butanol (2 layers, vortexed), 6 hours
[8] = 30% Butanol (2 layers, vortexed), 24 hours

Cl.Cn1c(CCCC(=O)O)nc2cc(N(CCCl)CCCl)ccc21 [bendamustine, 4-{5-[Bis(2-chloroethyl)amino]-1-methyl-2-benzimidazolyl}butyric acid]
HP1 (%) (10% n-Propanol, 6 hours): 0.70%
Purity (% Area) (10% n-Propanol, 6 hours): 98.92 % Area
Dimer (%) (10% n-Propanol, 24 hours): 0.28%
HP1 (%) (10% n-Propanol, 24 hours): 1.83%
Purity (% Area) (10% n-Propanol, 24 hours): 97.67 % Area
Dimer (%) [1]: 0.10%
HP1 (%) [1]: 0.23%
Purity (% Area) [1]: 99.54 % Area
Dimer (%) [2]: 0.11%
HP1 (%) [2]: 0.31%
Purity (% Area) [2]: 99.45 % Area
Dimer (%) [3]: 0.11%
HP1 (%) [3]: 0.40%
Purity (% Area) [3]: 99.30 % Area
Dimer (%) [4]: 0.14%
HP1 (%) [4]: 0.91%
Purity (% Area) [4]: 98.81 % Area
Dimer (%) (20% Ethanol, 0 hours): 0.10%
HP1 (%) (20% Ethanol, 0 hours): 0.22%
Purity (% Area) (20% Ethanol, 0 hours): 99.54 % Area
Dimer (%) (20% Ethanol, 3 hours): 0.11%
HP1 (%) (20% Ethanol, 3 hours): 0.30%
Purity (% Area) (20% Ethanol, 3 hours): 99.45 % Area
Dimer (%) (20% Ethanol, 6 hours): 0.11%
HP1 (%) (20% Ethanol, 6 hours): 0.39%
Purity (% Area) (20% Ethanol, 6 hours): 99.36 % Area
Dimer (%) (20% Ethanol, 24 hours): 0.15%
HP1 (%) (20% Ethanol, 24 hours): 0.96%
Purity (% Area) (20% Ethanol, 24 hours): 98.61 % Area
Dimer (%) (20% Iso-propanol, 0 hours): 0.11%
HP1 (%) (20% Iso-propanol, 0 hours): 0.21%
Purity (% Area) (20% Iso-propanol, 0 hours): 99.49 % Area
Dimer (%) (20% Iso-propanol, 3 hours): 0.12%
HP1 (%) (20% Iso-propanol, 3 hours): 0.31%
Purity (% Area) (20% Iso-propanol, 3 hours): 99.39 % Area
Dimer (%) (20% Iso-propanol, 6 hours): 0.13%
HP1 (%) (20% Iso-propanol, 6 hours): 0.42%
Purity (% Area) (20% Iso-propanol, 6 hours): 99.22 % Area
Dimer (%) (20% Iso-propanol, 24 hours): 0.17%
HP1 (%) (20% Iso-propanol, 24 hours): 1.04%
Purity (% Area) (20% Iso-propanol, 24 hours): 98.61 % Area
Dimer (%) (20% Methanol, 0 hours): 0.11%
HP1 (%) (20% Methanol, 0 hours): 0.22%
Purity (% Area) (20% Methanol, 0 hours): 99.56 % Area
Dimer (%) (20% Methanol, 3 hours): 0.11%
HP1 (%) (20% Methanol, 3 hours): 0.38%
Purity (% Area) (20% Methanol, 3 hours): 99.31 % Area
Dimer (%) (20% Methanol, 6 hours): 0.12%
HP1 (%) (20% Methanol, 6 hours): 0.50%
Purity (% Area) (20% Methanol, 6 hours): 98.99 % Area
Dimer (%) (20% Methanol, 24 hours): 0.16%
HP1 (%) (20% Methanol, 24 hours): 1.15%
Purity (% Area) (20% Methanol, 24 hours): 98.31 % Area
Dimer (%) (20% Tert-butanol, 0 hours): 0.11%
HP1 (%) (20% Tert-butanol, 0 hours): 0.17%
Purity (% Area) (20% Tert-butanol, 0 hours): 99.59 % Area
Dimer (%) (20% Tert-butanol, 3 hours): 0.11%
HP1 (%) (20% Tert-butanol, 3 hours): 0.29%
Purity (% Area) (20% Tert-butanol, 3 hours): 99.48 % Area
Dimer (%) (20% Tert-butanol, 6 hours): 0.12%
HP1 (%) (20% Tert-butanol, 6 hours): 0.40%
Purity (% Area) (20% Tert-butanol, 6 hours): 99.35 % Area
Dimer (%) (20% Tert-butanol, 24 hours): 0.20%
HP1 (%) (20% Tert-butanol, 24 hours): 1.27%
Purity (% Area) (20% Tert-butanol, 24 hours): 98.35 % Area
Dimer (%) (20% n-Propanol, 0 hours): 0.13%
HP1 (%) (20% n-Propanol, 0 hours): 0.33%
Purity (% Area) (20% n-Propanol, 0 hours): 99.45 % Area
Dimer (%) (20% n-Propanol, 3 hours): 0.13%
HP1 (%) (20% n-Propanol, 3 hours): 0.26%
Purity (% Area) (20% n-Propanol, 3 hours): 99.42 % Area
Dimer (%) (20% n-Propanol, 6 hours): 0.14%
HP1 (%) (20% n-Propanol, 6 hours): 0.39%
Purity (% Area) (20% n-Propanol, 6 hours): 99.29 % Area
Dimer (%) (20% n-Propanol, 24 hours): 0.24%
HP1 (%) (20% n-Propanol, 24 hours): 0.97%
Purity (% Area) (20% n-Propanol, 24 hours): 98.60 % Area
HP1 (30% (v/v) TBA, stored at 5° C. for up to 24 hours): about 0.4%
Dimer (%) [5]: 0.10%
HP1 (%) [5]: 0.24%
Purity (% Area) [5]: 99.55 % Area
Dimer (%) [6]: 0.10%
HP1 (%) [6]: 0.29%
Purity (% Area) [6]: 99.40 % Area
Dimer (%) [7]: 0.11%
HP1 (%) [7]: 0.37%
Dimer (%) [8]: 0.12%
HP1 (%) [8]: 0.74%
Dimer (%) (30% Ethanol, 0 hours): 0.10%
HP1 (%) (30% Ethanol, 0 hours): 0.15%
Purity (% Area) (30% Ethanol, 0 hours): 99.62 % Area
Dimer (%) (30% Ethanol, 3 hours): 0.11%
HP1 (%) (30% Ethanol, 3 hours): 0.21%
Purity (% Area) (30% Ethanol, 3 hours): 99.56 % Area
Dimer (%) (30% Ethanol, 6 hours): 0.12%
HP1 (%) (30% Ethanol, 6 hours): 0.24%
Purity (% Area) (30% Ethanol, 6 hours): 99.52 % Area
Dimer (%) (30% Ethanol, 24 hours): 0.12%
HP1 (%) (30% Ethanol, 24 hours): 0.45%
Purity (% Area) (30% Ethanol, 24 hours): 99.21 % Area
Dimer (%) (30% Iso-propanol, 0 hours): 0.10%
HP1 (%) (30% Iso-propanol, 0 hours): 0.15%
Purity (% Area) (30% Iso-propanol, 0 hours): 99.56 % Area
Dimer (%) (30% Iso-propanol, 3 hours): 0.12%
HP1 (%) (30% Iso-propanol, 3 hours): 0.20%
Purity (% Area) (30% Iso-propanol, 3 hours): 99.47 % Area
Dimer (%) (30% Iso-propanol, 6 hours): 0.11%
HP1 (%) (30% Iso-propanol, 6 hours): 0.24%
Purity (% Area) (30% Iso-propanol, 6 hours): 99.40 % Area
Dimer (%) (30% Iso-propanol, 24 hours): 0.14%
HP1 (%) (30% Iso-propanol, 24 hours): 0.52%
Purity (% Area) (30% Iso-propanol, 24 hours): 99.15 % Area
Dimer (%) (30% Methanol, 0 hours): 0.10%
HP1 (%) (30% Methanol, 0 hours): 0.18%
Purity (% Area) (30% Methanol, 0 hours): 99.59 % Area
Dimer (%) (30% Methanol, 3 hours): 0.11%
HP1 (%) (30% Methanol, 3 hours): 0.27%
Purity (% Area) (30% Methanol, 3 hours): 99.43 % Area
Dimer (%) (30% Methanol, 6 hours): 0.11%
HP1 (%) (30% Methanol, 6 hours): 0.34%
Purity (% Area) (30% Methanol, 6 hours): 99.25 % Area
Dimer (%) (30% Methanol, 24 hours): 0.13%
HP1 (%) (30% Methanol, 24 hours): 0.76%
Purity (% Area) (30% Methanol, 24 hours): 98.65 % Area
Dimer (%) (30% Tert-butanol, 0 hours): 0.10%
HP1 (%) (30% Tert-butanol, 0 hours): 0.13%
Purity (% Area) (30% Tert-butanol, 0 hours): 99.63 % Area
Dimer (%) (30% Tert-butanol, 3 hours): 0.10%
HP1 (%) (30% Tert-butanol, 3 hours): 0.16%
Purity (% Area) (30% Tert-butanol, 3 hours): 99.60 % Area
Dimer (%) (30% Tert-butanol, 6 hours): 0.11%
HP1 (%) (30% Tert-butanol, 6 hours): 0.18%
Purity (% Area) (30% Tert-butanol, 6 hours): 99.58 % Area
Dimer (%) (30% Tert-butanol, 24 hours): 0.12%
HP1 (%) (30% Tert-butanol, 24 hours): 0.34%
Purity (% Area) (30% Tert-butanol, 24 hours): 99.42 % Area
Dimer (%) (30% n-Propanol, 0 hours): 0.13%
HP1 (%) (30% n-Propanol, 0 hours): 0.15%
Purity (% Area) (30% n-Propanol, 0 hours): 99.53 % Area
Dimer (%) (30% n-Propanol, 3 hours): 0.15%
HP1 (%) (30% n-Propanol, 3 hours): 0.15%
Purity (% Area) (30% n-Propanol, 3 hours): 99.51 % Area
Dimer (%) (30% n-Propanol, 6 hours): 0.11%
HP1 (%) (30% n-Propanol, 6 hours): 0.20%
Purity (% Area) (30% n-Propanol, 6 hours): 99.44 % Area
Dimer (%) (30% n-Propanol, 24 hours): 0.17%
HP1 (%) (30% n-Propanol, 24 hours): 0.36%
Purity (% Area) (30% n-Propanol, 24 hours): 99.27 % Area
